This note sets out measurements from US11866450B2, “Modulators of Cystic Fibrosis Transmembrane Conductance regulator, pharmaceutical compositions, methods of treatment, and process for making the modulators” (priority 2018, dated 2024).

The target in this assay is CFTR-mediated chloride transport (Homo sapiens, UniProt P13569). The assay is classed as cell-based. The note with it: enteroid cells incubated with test compound 18-24 hours, acute 10 μM forskolin and 300 nM Compound III; for Max. Activity: % of chloride transport with 3 μM Compound A, 3 μM Compound II and 300 nM acute Compound III triple combination control. As for the experimental part:
Base medium (ADF+++) consisted of Advanced DMEM/Ham's F12, 2 mM Glutamax, 10 mM HEPES, […] penicillin/streptomycin.
Intestinal enteroid maintenance medium (IEMM) consisted of ADF+++, 1× B27 supplement, 1× N2 supplement, 1.25 mM N-acetyl cysteine, 10 mM Nicotinamide, 50 ng/mL hEGF, 10 nM Gastrin, 1 μg/mL hR-spondin-1, 100 ng/mL hNoggin, TGF-b type 1 inhibitor A-83-01, 100 μg/mL Primocin, 10 μM P38 MAPK inhibitor SB202190.
Bath 1 Buffer consisted of 1 mM MgCl2, 160 mM NaCl, 4.5 mM KCl, 10 mM HEPES, 10 mM Glucose, 2 mM CaCl2).
Chloride Free Buffer consisted of 1 mM Magnesium Gluconate, 2 mM Calcium Gluconate, 4.5 mM Potassium Gluconate, 160 mM Sodium Gluconate, 10 mM HEPES, 10 mM Glucose.
Bath1 Dye Solution consisted of Bath 1 Buffer, 0.04% Pluronic F127, 20 μM Methyl Oxonol, 30 μM CaCCinh-A01, 30 μM Chicago Sky Blue.
Chloride Free Dye Solution consisted of Chloride Free Buffer, 0.04% Pluronic F127, 20 μM Methyl Oxonol, 30 μM CaCCinh-A01, 30 μM Chicago Sky Blue.
Chloride Free Dye Stimulation Solution consisted of Chloride Free Dye Solution, 10 μM forskolin, 100 μM IBMX, and 300 nM Compound III.
Human intestinal epithelial enteroid cells were obtained from the Hubrecht Institute for Developmental Biology and Stem Cell Research, Utrecht, The Netherlands and expanded in T-Flasks as previously described (Dekkers J F, Wiegerinck C L, de Jonge H R, Bronsveld I, Janssens H M, de Winter-de Groot K M, Brandsma A M, de Jong N W M, Bijvelds M J C, Scholte B J, Nieuwenhuis E E S, van den Brink S, Clevers H, van der Ent C K, Middendorp S and M Beekman J M. A functional CFTR assay using primary cystic fibrosis intestinal organoids. Nat Med. 2013 July; 19(7):939-45).
Cells were recovered in cell recovery solution, collected by centrifugation at 650 rpm for 5 min at 4° C., resuspended in TryPLE and incubated for 5 min at 37° C. Cells were then collected by centrifugation at 650 rpm for 5 min at 4° C. and resuspended in IEMM containing 10 μM ROCK inhibitor (RI) (trans-4-[(1R)-1-aminoethyl]-N-4-pyridinylcyclohexanecarboxamide). The cell suspension was passed through a 40 μm cell strainer and resuspended at 1×10^6 cells/mL in IEMM containing 10 μM RI. Cells were seeded at 5000 cells/well into multi-well plates and incubated for overnight at 37° C., 95% humidity and 5% CO2 prior to assay.
Enteroid cells were incubated with test compound in IEMM for 18-24 hours at 37° C., 95% humidity and 5% CO2. Following compound incubations, a membrane potential dye assay was employed using a FLIPR Tetra to directly measure the potency and efficacy of the test compound on CFTR-mediated chloride transport following acute addition of 10 μM forskolin and 300 nM Compound III. Briefly, cells were washed 5 times in Bath 1 Buffer. Bath 1 Dye Solution was added and the cells were incubated for 25 min at room temperature. Following dye incubation, cells were washed 3 times in Chloride Free Dye Solution. Chloride transport was initiated by addition of Chloride Free Dye Stimulation Solution and the fluorescence signal was read for 15 min. The CFTR-mediated chloride transport for each condition was determined from the AUC of the fluorescence response to acute forskolin and 300 nM Compound III stimulation. Chloride transport was then expressed as a percentage of the chloride transport following treatment with 3 μM Compound A, 3 μM Compound II and 300 nM acute Compound III triple combination control (% Activity).

CFTR-mediated chloride transport, sequence (P13569 whole entry, looked up): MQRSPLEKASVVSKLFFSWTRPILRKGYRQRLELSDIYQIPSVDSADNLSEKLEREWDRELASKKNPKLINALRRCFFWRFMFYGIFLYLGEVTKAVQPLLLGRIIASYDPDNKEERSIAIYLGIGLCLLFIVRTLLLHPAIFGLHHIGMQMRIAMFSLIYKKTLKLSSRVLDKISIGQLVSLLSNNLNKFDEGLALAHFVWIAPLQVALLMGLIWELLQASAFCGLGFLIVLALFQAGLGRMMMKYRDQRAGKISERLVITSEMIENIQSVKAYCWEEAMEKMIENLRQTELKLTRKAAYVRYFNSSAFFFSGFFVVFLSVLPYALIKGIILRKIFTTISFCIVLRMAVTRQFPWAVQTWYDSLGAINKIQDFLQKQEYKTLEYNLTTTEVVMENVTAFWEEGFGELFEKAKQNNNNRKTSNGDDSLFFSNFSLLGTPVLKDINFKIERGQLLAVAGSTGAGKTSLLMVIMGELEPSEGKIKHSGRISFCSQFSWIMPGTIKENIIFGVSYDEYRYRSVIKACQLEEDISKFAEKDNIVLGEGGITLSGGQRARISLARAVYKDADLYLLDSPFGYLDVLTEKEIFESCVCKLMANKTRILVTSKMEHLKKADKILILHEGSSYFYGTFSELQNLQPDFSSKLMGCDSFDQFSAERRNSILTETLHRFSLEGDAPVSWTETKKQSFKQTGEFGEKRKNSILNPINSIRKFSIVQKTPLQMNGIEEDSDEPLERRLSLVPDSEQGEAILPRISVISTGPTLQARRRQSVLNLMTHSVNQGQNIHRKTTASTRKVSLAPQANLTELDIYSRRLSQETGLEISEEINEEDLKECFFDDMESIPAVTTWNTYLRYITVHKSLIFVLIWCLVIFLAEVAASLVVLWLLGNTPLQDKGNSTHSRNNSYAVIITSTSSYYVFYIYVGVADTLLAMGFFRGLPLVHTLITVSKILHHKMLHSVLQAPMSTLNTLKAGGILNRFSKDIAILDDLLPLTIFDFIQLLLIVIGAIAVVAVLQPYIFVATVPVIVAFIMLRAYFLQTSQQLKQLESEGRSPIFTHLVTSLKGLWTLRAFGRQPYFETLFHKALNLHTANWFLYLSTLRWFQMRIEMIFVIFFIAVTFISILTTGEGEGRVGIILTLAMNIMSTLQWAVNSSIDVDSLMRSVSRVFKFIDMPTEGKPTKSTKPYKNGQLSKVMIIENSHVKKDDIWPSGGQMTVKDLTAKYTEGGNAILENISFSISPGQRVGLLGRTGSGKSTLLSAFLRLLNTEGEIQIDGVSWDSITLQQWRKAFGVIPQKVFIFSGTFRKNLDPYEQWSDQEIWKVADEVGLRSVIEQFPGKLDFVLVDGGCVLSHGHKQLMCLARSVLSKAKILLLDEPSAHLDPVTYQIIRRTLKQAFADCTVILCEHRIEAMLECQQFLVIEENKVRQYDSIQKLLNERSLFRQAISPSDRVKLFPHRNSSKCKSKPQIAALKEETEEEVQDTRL

On to `CC1(C)C[C@H]2CCCCNc3cccc(n3)S(=O)(=O)NC(=O)c3ccc(-n4ccc(OCCC5(C(F)(F)F)CC5)n4)nc3N1C2` (single isomer, unassigned) [Compound 29, 12,12-dimethyl-8-(3-{2-[1-(trifluoromethyl)cyclopropyl]ethoxy}-1H-pyrazol-1-yl)-2λ^6-thia-3,9,11,19,24-pentaazatetracyclo[18.3.1.111,14.05,10]pentacosa-1(23),5,7,9,20(24),21-hexaene-2,2,4-trione], for which the EC50 was less than 1000 nM and the “Max. Activity” value is given as “++ (++ is 30-60%)”.
The matching figures for `CC1(C)C[C@H]2CCCCNc3cccc(n3)S(=O)(=O)NC(=O)c3ccc(-n4ccc(OCCC5(C(F)(F)F)CC5)n4)nc3N1C2` (single isomer, unassigned) [Compound 30, 12,12-dimethyl-8-(3-{2-[1-(trifluoromethyl)cyclopropyl]ethoxy}-1H-pyrazol-1-yl)-2λ^6-thia-3,9,11,19,24-pentaazatetracyclo[18.3.1.111,14.05,10]pentacosa-1(23),5,7,9,20(24),21-hexaene-2,2,4-trione]: less than 1000 nM and “+++ (+++ is >60%)”.
With `CC1(C)C[C@H]2CCCCn3ccc(n3)S(=O)(=O)NC(=O)c3ccc(-n4ccc(OCCC5(C(F)(F)F)CC5)n4)nc3N1C2` (single isomer, unassigned) [Compound 44, 21,21-dimethyl-4-(3-{2-[1-(trifluoromethyl)cyclopropyl]ethoxy}-1H-pyrazol-1-yl)-10λ^6-thia-1,3,9,14,23-pentaazatetracyclo[17.2.1.111,14.02,7]tricosa-2,4,6,11(23),12-pentaene-8,10,10-trione], the EC50 was greater than 3000 nM and the “Max. Activity” value is given as “++ (++ is 30-60%)”.
Turning to `CC1(C)C[C@H]2CCCCn3ccc(n3)S(=O)(=O)NC(=O)c3ccc(-n4ccc(OCCC5(C(F)(F)F)CC5)n4)nc3N1C2` (single isomer, unassigned) [Compound 45, 21,21-dimethyl-4-(3-{2-[1-(trifluoromethyl)cyclopropyl]ethoxy}-1H-pyrazol-1-yl)-10λ^6-thia-1,3,9,14,23-pentaazatetracyclo[17.2.1.111,14.02,7]tricosa-2,4,6,11(23),12-pentaene-8,10,10-trione], the EC50 is less than 1000 nM and the “Max. Activity” value is recorded as “+++ (+++ is >60%)”.
The matching figures for `CC1(C)CC[C@H]2CCCCNc3cccc(n3)S(=O)(=O)NC(=O)c3ccc(-n4ccc(OCCC5(C(F)(F)F)CC5)n4)nc3N21` (single isomer, unassigned) [Compound 46, 12,12-dimethyl-8-(3-{2-[1-(trifluoromethyl)cyclopropyl]ethoxy}-1H-pyrazol-1-yl)-2λ^6-thia-3,9,11,20,25-pentaazatetracyclo[19.3.1.05,10.011,15]pentacosa-1(24),5,7,9,21(25),22-hexaene-2,2,4-trione]: greater than 3000 nM and “+ (+ is <30%)”.
The like results for `CC1(C)CC[C@H]2CCCCNc3cccc(n3)S(=O)(=O)NC(=O)c3ccc(-n4ccc(OCCC5(C(F)(F)F)CC5)n4)nc3N21` (single isomer, unassigned) [Compound 47, 12,12-dimethyl-8-(3-{2-[1-(trifluoromethyl)cyclopropyl]ethoxy}-1H-pyrazol-1-yl)-2λ^6-thia-3,9,11,20,25-pentaazatetracyclo[19.3.1.05,10.011,15]pentacosa-1(24),5,7,9,21(25),22-hexaene-2,2,4-trione] were, in that order, less than 1000 nM and “+++ (+++ is >60%)”.
The matching figures for `CC1(C)C[C@H]2CCCOc3cccc(n3)S(=O)(=O)NC(=O)c3ccc(-n4ccc(OCCC5(C(F)(F)F)CC5)n4)nc3N1C2` (single isomer, unassigned) [Compound 48, 12,12-dimethyl-8-(3-{2-[1-(trifluoromethyl)cyclopropyl]ethoxy}-1H-pyrazol-1-yl)-18-oxa-2λ^6-thia-3,9,11,23-tetraazatetracyclo[17.3.1.111,14.05,10]tetracosa-1(22),5,7,9,19(23),20-hexaene-2,2,4-trione]: greater than 3000 nM and “+ (+ is <30%)”.
Consider `CC1(C)C[C@H]2CCCOc3cccc(n3)S(=O)(=O)NC(=O)c3ccc(-n4ccc(OCCC5(C(F)(F)F)CC5)n4)nc3N1C2` (single isomer, unassigned) [Compound 49, 12,12-dimethyl-8-(3-{2-[1-(trifluoromethyl)cyclopropyl]ethoxy}-1H-pyrazol-1-yl)-18-oxa-2λ^6-thia-3,9,11,23-tetraazatetracyclo[17.3.1.111,14.05,10]tetracosa-1(22),5,7,9,19(23),20-hexaene-2,2,4-trione], for which the EC50 was less than 1000 nM and the “Max. Activity” value was “+++ (+++ is >60%)”.
The matching figures for `CC1(C)CC[C@H]2CNc3cccc(n3)S(=O)(=O)NC(=O)c3ccc(-n4ccc(OCCC5(C(F)(F)F)CC5)n4)nc3N21` (single isomer, unassigned) [Compound 50, 7,7-dimethyl-11-(3-{2-[1-(trifluoromethyl)cyclopropyl]ethoxy}-1H-pyrazol-1-yl)-17λ^6-thia-2,8,10,16,22-pentaazatetracyclo[16.3.1.04,8.09,14]docosa-1(22),9,11,13,18,20-hexaene-15,17,17-trione]: greater than 3000 nM and “+ (+ is <30%)”.
The matching figures for `CC1(C)CC[C@H]2CNc3cccc(n3)S(=O)(=O)NC(=O)c3ccc(-n4ccc(OCCC5(C(F)(F)F)CC5)n4)nc3N21` (single isomer, unassigned) [Compound 51, 7,7-dimethyl-11-(3-{2-[1-(trifluoromethyl)cyclopropyl]ethoxy}-1H-pyrazol-1-yl)-17λ^6-thia-2,8,10,16,22-pentaazatetracyclo[16.3.1.04,8.09,14]docosa-1(22),9,11,13,18,20-hexaene-15,17,17-trione]: greater than 3000 nM and “+ (+ is <30%)”.
The like results for `CC1(C)C[C@H]2CCCCc3ccc(cc3)S(=O)(=O)NC(=O)c3ccc(-n4ccc(OCCC5(C(F)(F)F)CC5)n4)nc3N1C2` (single isomer, unassigned) [Compound 54, 12,12-Dimethyl-8-(3-{2-[1-(trifluoromethyl)cyclopropyl]ethoxy}-1H-pyrazol-1-yl)-2λ^6-thia-3,9,11-triazatetracyclo[17.2.2.111,14.05,10]tetracosa-1(21),5,7,9,19,22-hexaene-2,2,4-trione] were, in that order, 1000 to 3000 nM and “++ (++ is 30-60%)”.
Turning to `CC1(C)C[C@H]2CCCCc3ccc(cc3)S(=O)(=O)NC(=O)c3ccc(-n4ccc(OCCC5(C(F)(F)F)CC5)n4)nc3N1C2` (single isomer, unassigned) [Compound 55, 12,12-Dimethyl-8-(3-{2-[1-(trifluoromethyl)cyclopropyl]ethoxy}-1H-pyrazol-1-yl)-2λ^6-thia-3,9,11-triazatetracyclo[17.2.2.111,14.05,10]tetracosa-1(21),5,7,9,19,22-hexaene-2,2,4-trione], the 50% effective concentration (EC50) is less than 1000 nM and the “Max. Activity” value is given as “+++ (+++ is >60%)”.
Regarding `CC1(C)C[C@H]2CCCCc3cccc(c3)S(=O)(=O)NC(=O)c3ccc(-n4ccc(OCCC5(C(F)(F)F)CC5)n4)nc3N1C2` (single isomer, unassigned) [Compound 56, 12,12-dimethyl-8-(3-{2-[1-(trifluoromethyl)cyclopropyl]ethoxy}-1H-pyrazol-1-yl)-2λ^6-thia-3,9,11-triazatetracyclo[17.3.1.111,14.05,10]tetracosa-1(22),5,7,9,19(23),20-hexaene-2,2,4-trione], the EC50 is less than 1000 nM and the “Max. Activity” value is “+ (+ is <30%)”.
